Results taken from PubChem BioAssay AID330 (DTP/NCI, 2004).
“And” between values parts separate entries of the source, which are not always exact repeats. Equal values may be shown once. Inconclusive results and toxic doses are left out. How the source made its calls: active means survival T/C of 150% or more; inactive means T/C below 125% in these data.

Tested on: P388 leukemia ip, CD2F1 mice, survival T/C
Test: NCI In Vivo Anticancer Drug Screen. Data for tumor model P388 Leukemia (intraperitoneal) in CD2F1 (CDF1) mice
Details: endpoint: median survival time, higher = longer survival
In short: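 Mice carrying the transplanted tumor received test compound or vehicle. Survival was recorded in each group, and the value is the treated-group measurement divided by that of the vehicle-treated control group.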

[1] = dose: 25.0 mg/kg/injection, schedule: Q01DX005 (ip), vehicle: Klucel (hydroxypropylcellulose) (HPC)
[2] = dose: 50.0 mg/kg/injection, schedule: Q01DX005 (ip), vehicle: Klucel (hydroxypropylcellulose) (HPC)
[3] = dose: 60.0 mg/kg/injection, schedule: Q01DX005 (ip), vehicle: saline with Tween-80
[4] = dose: 60.0 mg/kg/injection, schedule: Q01DX005 (ip), vehicle: Klucel (hydroxypropylcellulose) (HPC)
[5] = dose: 50.0 mg/kg/injection, schedule: Q01DX009 (ip), vehicle: saline with Tween-80
[6] = dose: 100.0 mg/kg/injection, schedule: Q01DX009 (ip), vehicle: saline with Tween-80
[7] = dose: 200.0 mg/kg/injection, schedule: Q01DX009 (ip), vehicle: saline with Tween-80
[8] = dose: 100.0 mg/kg/injection, schedule: Q04DX003 (ip), vehicle: saline
[9] = dose: 200.0 mg/kg/injection, schedule: Q04DX003 (ip), vehicle: saline
[10] = dose: 100.0 mg/kg/injection, schedule: Q01DX005 (ip), vehicle: Klucel (hydroxypropylcellulose) (HPC)
[11] = dose: 200.0 mg/kg/injection, schedule: Q01DX005 (ip), vehicle: Klucel (hydroxypropylcellulose) (HPC)
[12] = dose: 50.0 mg/kg/injection, schedule: Q01DX005 (ip), vehicle: saline with Tween-80
[13] = dose: 100.0 mg/kg/injection, schedule: Q01DX005 (ip), vehicle: saline with Tween-80
[14] = dose: 200.0 mg/kg/injection, schedule: Q01DX005 (ip), vehicle: saline with Tween-80
[15] = dose: 6.25 mg/kg/injection, schedule: Q01DX005 (ip), vehicle: saline with Tween-80
[16] = dose: 12.5 mg/kg/injection, schedule: Q01DX005 (ip), vehicle: saline with Tween-80
[17] = dose: 25.0 mg/kg/injection, schedule: Q01DX005 (ip), vehicle: saline with Tween-80
[18] = dose: 12.5 mg/kg/injection, schedule: Q01DX009 (ip), vehicle: saline
[19] = dose: 25.0 mg/kg/injection, schedule: Q01DX009 (ip), vehicle: saline
[20] = dose: 50.0 mg/kg/injection, schedule: Q01DX009 (ip), vehicle: saline
[21] = dose: 100.0 mg/kg/injection, schedule: Q01DX009 (ip), vehicle: saline
[22] = dose: 200.0 mg/kg/injection, schedule: Q01DX009 (ip), vehicle: saline

Measured: T/C

O=C1NC(O)c2cc(Br)cc(Br)c2O1 (configuration not stated)
inactive: dose: 12.5 mg/kg/injection, schedule: Q01DX005 (ip), vehicle: Klucel (hydroxypropylcellulose) (HPC) 100 % of control | [1] 101 % of control | [2] 103 % of control

CCCCC(Nc1nncs1)Nc1nncs1
inactive: [3] 90 % of control | dose: 120.0 mg/kg/injection, schedule: Q01DX005 (ip), vehicle: saline with Tween-80 102 % of control | dose: 240.0 mg/kg/injection, schedule: Q01DX005 (ip), vehicle: saline with Tween-80 96 % of control

COc1cc(N)c(C)c2c(C)ccnc12
inactive: dose: 30.0 mg/kg/injection, schedule: Q01DX005 (ip), vehicle: Klucel (hydroxypropylcellulose) (HPC) 106 % of control | [4] 92 % of control and 97 % of control

O=[N+]([O-])c1ccc(OCCSc2ccccc2)cc1
inactive: [5] 90 % of control | [6] 98 % of control | [7] 100 % of control

CCOC(=O)C(=O)N1c2c(nc(N)[nH]c2=O)NCC1CNc1ccc(C(=O)NC(CCC(=O)O)C(=O)O)cc1 (configuration not stated) (tested in a mixture with another compound)
inactive: dose: 50.0 mg/kg/injection, schedule: Q01DX001 (ip), vehicle: saline 111 % of control | dose: 100.0 mg/kg/injection, schedule: Q01DX001 (ip), vehicle: saline 101 % of control | dose: 200.0 mg/kg/injection, schedule: Q01DX001 (ip), vehicle: saline 101 % of control

CC(C)(C)C(CCC(=O)O)CC(=O)O (configuration not stated)
inactive: [5] 100 % of control | [6] 95 % of control | [8] 95 % of control | [7] 100 % of control | [9] 91 % of control

Cc1ccc(N=C(CC(C)C)C2C(=O)c3ccccc3C2=O)cc1
inactive: [2] 100 % of control | [10] 94 % of control | [11] 99 % of control

COC(CN(C)CC(OC)OC)OC
inactive: [8] 95 % of control | [9] 100 % of control | dose: 400.0 mg/kg/injection, schedule: Q04DX003 (ip), vehicle: saline 100 % of control

Cc1ccc2ccc(N(C)C)cc2n1
inactive: [5] 100 % of control | [6] 107 % of control

CCN(CCN(C)c1ccccc1)Cc1ccccc1
inactive: [5] 105 % of control | [6] 103 % of control | [7] 105 % of control

CCCCNC=C1C(=O)Nc2ccccc2NC1=O
inactive: [4] 98 % of control | dose: 120.0 mg/kg/injection, schedule: Q01DX005 (ip), vehicle: Klucel (hydroxypropylcellulose) (HPC) 92 % of control | dose: 240.0 mg/kg/injection, schedule: Q01DX005 (ip), vehicle: Klucel (hydroxypropylcellulose) (HPC) 91 % of control

O=C(Nc1nnc(-c2ccccc2)s1)c1cc(=O)c2cc([N+](=O)[O-])ccc2o1
inactive: [12] 100 % of control | [13] 102 % of control | [14] 96 % of control

Nc1nc2nc[nH]c(=O)c2[nH]1
inactive: [15] 99 % of control | [16] 99 % of control | [17] 102 % of control and 106 % of control | [12] 102 % of control

CCCC1CCCCN1C (configuration not stated)
inactive: dose: 3.12 mg/kg/injection, schedule: Q01DX005 (ip), vehicle: saline with Tween-80 105 % of control | [15] 105 % of control | [16] 108 % of control | [17] 105 % of control

CC(=O)Oc1cccnc1[N+](=O)[O-]
inactive: [18] 103 % of control and 106 % of control | [19] 100 % of control and 101 % of control | [20] 102 % of control and 120 % of control and 94 % of control | [21] 106 % of control and 108 % of control and 123 % of control | [22] 105 % of control and 119 % of control | dose: 400.0 mg/kg/injection, schedule: Q01DX009 (ip), vehicle: saline 105 % of control

O=C1CS(=O)(=O)C(c2ccccc2F)N1N1C(=O)CS(=O)(=O)C1c1ccccc1F (configuration not stated)
inactive: dose: 15.0 mg/kg/injection, schedule: Q01DX005 (ip), vehicle: saline with Tween-80 98 % of control and 87 % of control | dose: 30.0 mg/kg/injection, schedule: Q01DX005 (ip), vehicle: saline with Tween-80 89 % of control | [3] 87 % of control and 89 % of control

O=S(=O)(O)SCCN1CCCC1
inactive: [18] 105 % of control | [19] 110 % of control | [20] 110 % of control

CCN(Cc1cccc(S(=O)(=O)O)c1)c1ccc(C(=C2C=CC(=[N+](CC)Cc3cccc(S(=O)(=O)O)c3)C=C2)c2ccc(S(=O)(=O)O)cc2)cc1
inactive: dose: 50.0 mg/kg/injection, schedule: Q01DX005 (ip), vehicle: saline 100 % of control | dose: 100.0 mg/kg/injection, schedule: Q01DX005 (ip), vehicle: saline 99 % of control | dose: 200.0 mg/kg/injection, schedule: Q01DX005 (ip), vehicle: saline 94 % of control

COC(=O)c1ccc(C)c(N)c1
inactive: [12] 102 % of control | [13] 104 % of control | [14] 102 % of control

CCCCCCCCCCCCC1=NCC[N+]1(CCO)CC(O)COc1cc(Cl)c(Cl)cc1Cl (configuration not stated)
inactive: [18] 105 % of control | [19] 105 % of control | [20] 102 % of control and 95 % of control | [21] 90 % of control

Clc1cccc(Cl)c1C(Nc1cnccn1)Nc1cnccn1
inactive: [1] 101 % of control and 104 % of control | [2] 101 % of control (2×) and 116 % of control | [10] 106 % of control and 113 % of control

COc1cc2c(cc1OC)[C@H]1[C@@H](CO)c3ccc4c(c3CN1CC2)OCO4
inactive: [2] 109 % of control | [10] 92 % of control | [11] 92 % of control

CN(C(=S=O)c1ccc(Cl)cc1)c1ccccc1
inactive: dose: 25.0 mg/kg/injection, schedule: Q01DX009 (ip), vehicle: suspension in saline 101 % of control | dose: 50.0 mg/kg/injection, schedule: Q01DX009 (ip), vehicle: suspension in saline 95 % of control | [21] 90 % of control | dose: 100.0 mg/kg/injection, schedule: Q01DX009 (ip), vehicle: suspension in saline 105 % of control and 97 % of control | [22] 94 % of control
